Patent US11149047B2, “Aryl imidazoles for treatment of cancer” (Aptose Biosciences Inc., priority 2017, dated 2021)

How the values were obtained:
[1] = test system: MCF10A BRCA1-het #1 and #2 clones vs control; assay: Sensitivity of BRCA1-proficient and -deficient isogenic clones; type: cell-based, human; conditions: FIG. 3A
Method: (§1) Cells were plated and treated with the indicated drugs in 96-well plates for 5 days. Cell viability was measured using CellTiter 96 AQueous one solution (MTS) cell proliferation assay purchased from Promega, and IC50 values were calculated using GraphPad Prism 6 Software.
(§2) The finding that COMPOUND I produced DNA damage led to the investigation of whether cells deficient in homologous recombination were hypersensitive to this drug. The hypothesis that there would be synthetic lethality between COMPOUND I and BRCA1 deficiency using isogenic pairs of BRCA1-proficient and -deficient human cell lines was tested. […] The conclusion that BRCA1-deficient cells are hypersensitive to COMPOUND I was further supported by the results obtained in MCF7 E7 cells in which BRCA1 expression is stably knocked down by the expression of an shRNAi. […] Whether BRCA2-deficient cells are more sensitive to COMPOUND I was tested using the BRCA2-proficient and BRCA2-deficient ovarian cancer cell lines, PEO4 and PEO1, respectively. PEO1 is BRCA2-deficient and sensitive to cisplatin and a poly(ADP-ribose) polymerase inhibitor AG14361. PEO4 was derived from ascites at the time of relapse with cisplatin resistance and contains a secondary mutation that restores BRCA2 function. […] Thus, loss of either BRCA1 or BRCA2 function renders malignant cells hypersensitive to COMPOUND I.

[2] = test system: hTERT-IMEC BRCA1 knock-in clone; assay: as above; type: cell-based, human; conditions: FIG. 3B
Method: as §1, §2

EOL-1 = assay: Cytotoxicity study (MTS), 5 days; type: cell-based; conditions: Homo sapiens, EOL1; AML
Method: (§3) EOL-1, GRANTA-519, Jeko-1, Jurkat, Molm-13, NOMO-1, SKM-1, and SU-DHL-6 were obtained from Leibniz-Institut DSMZ. HL-60, KG-1, Mino, MV4-11, Raji, and THP-1 were obtained from ATCC. HEL92.1.7 were obtained from the European Collection of Authenticated Cell Cultures and Ramos cells were a gift from Dr. M. Andreeff (MD Anderson Cancer Center, Houston, Tex.). All cells were cultured in complete media as per the manufacturer's instructions. Early passage cells were collected and frozen within 1 month of receipt from the manufacturer. All experiments were performed on early passage cells within 6 weeks of thawing. MycoScope Mycoplasma Detection Kit (Genlantis catalog #MY01050) was used to screen for potential contamination every 6 months. Peripheral blood mononuclear cells (PBMC) were isolated from fresh healthy donor blood using Ficoll-Paque PLUS (GE Healthcare, catalog #17-1440-02). For synthesis of COMPOUND I free base, 10-phenanthroline-5,6-dione (1.2 equivalents), acetic acid (22 volumes), 2-methyl-5-fluoroindole-3-carboxaldehyde (1.0 equivalents), and ammonium acetate (15 equivalents) were reacted under medium agitation while heated at 95±5° C. for 3 to 7 hours. The reaction was cooled to between 20° C. and 25° C., filtered, rinsed with acetic acid and ethanol, and dried with N2 purge, followed by a wash with 2:1 ethanol:water at 65° C. for 4 hours, cooling to 20° C. to 25° C., filtration, rinsing with 2:1 ethanol:water and EtOAc, and then dried with N2 purge. The purity by HPLC was 99.5%, and the structural identity was confirmed by FT-IR, ^1HNMR, ^13C NMR, and LC/MS. For Fe(COMPOUND I)3 synthesis, five molar equivalents of ferrous ion FeSO4 in water was added to COMPOUND I dissolved in ethanol. The deep red precipitate produced, Fe(COMPOUND I)3, was collected and dissolved in DMSO and characterized by HPLC and mass spectrometry as >95% pure. CX-5461 (7) was purchased from MedChem Express (catalog #HY-13323).
(§4) Cells were plated and treated with vehicle DMSO or COMPOUND I (10 concentrations) in 96-well plates for 5 days at 37° C. and 5% CO2. Cell viability was measured using CellTiter 96 AQueous one solution (MTS) cell proliferation assay (Promega, catalog #G3581), and IC50 values were calculated using GraphPad Prism 7 software.

GRANTA-519 = assay: Cytotoxicity study (MTS), 5 days; type: cell-based; conditions: Homo sapiens, MCL
Method: as §3, §4

HEL92.1.7 = assay: Cytotoxicity study (MTS), 5 days; type: cell-based; conditions: Homo sapiens, HEL 92.1.7; AML
Method: as §3, §4

HL-60 = assay: Cytotoxicity study (MTS), 5 days; type: cell-based; conditions: Homo sapiens, AML
Method: as §3, §4

Jeko-1 = assay: Cytotoxicity study (MTS), 5 days; type: cell-based; conditions: Homo sapiens, MCL
Method: as §3, §4

Jurkat = assay: Cytotoxicity study (MTS), 5 days; type: cell-based; conditions: Homo sapiens, T-ALL
Method: as §3, §4

KG-1 = assay: Cytotoxicity study (MTS), 5 days; type: cell-based; conditions: Homo sapiens, AML
Method: as §3, §4

MOLM-13 = assay: Cytotoxicity study (MTS), 5 days; type: cell-based; conditions: Homo sapiens, AML
Method: as §3, §4

Mino = assay: Cytotoxicity study (MTS), 5 days; type: cell-based; conditions: Homo sapiens, MCL
Method: as §3, §4

Nomo-1 = assay: Cytotoxicity study (MTS), 5 days; type: cell-based; conditions: Homo sapiens, AML
Method: as §3, §4

Raji = assay: Cytotoxicity study (MTS), 5 days; type: cell-based; conditions: Homo sapiens, Burkitt's
Method: as §3, §4

Ramos = assay: Cytotoxicity study (MTS), 5 days; type: cell-based; conditions: Homo sapiens, Burkitt's
Method: as §3, §4

SKM-1 = assay: Cytotoxicity study (MTS), 5 days; type: cell-based; conditions: Homo sapiens, AML
Method: as §3, §4

SUDHL-6 = assay: Cytotoxicity study (MTS), 5 days; type: cell-based; conditions: Homo sapiens, SU-DHL-6; DLBCL
Method: as §3, §4

THP1 = assay: Cytotoxicity study (MTS), 5 days; type: cell-based; conditions: Homo sapiens, THP-1; AML
Method: as §3, §4

Structure (SMILES): Cc1[nH]c2ccc(F)cc2c1-c1nc2c3cccnc3c3ncccc3c2[nH]1 [COMPOUND I, 2-(5-fluoro-2-methyl-1H-indol-3-yl)-1H-imidazo[4,5-f][1,10]phenanthroline]
- sensitivity of BRCA1-het knockin clones vs control [1]: even more hypersensitive
- sensitivity of BRCA1 2-bp knock-in clone [2]: hypersensitive to both olaparib and COMPOUND I
- IC50 (EOL-1): 0.3 µM
- IC50 (GRANTA-519): 0.082 µM
- IC50 (HEL92.1.7): 1.75 µM
- IC50 (HL-60): 0.46 µM
- IC50 (Jeko-1): 0.057 µM
- IC50 (Jurkat): 0.52 µM
- IC50 (KG-1): 0.51 µM
- IC50 (MOLM-13): 0.14 µM
- IC50 (Mino): 0.23 µM
- IC50 (Nomo-1): 1.45 µM
- IC50 (Raji): 0.1 µM
- IC50 (Ramos): 0.35 µM
- IC50 (SKM-1): 0.48 µM
- IC50 (SUDHL-6): 0.51 µM
- IC50 (THP1): 0.34 µM
